For test [1], the system named is Schistosoma mansoni. Nature of the test: Antischistosomal activity against Schistosoma mansoni by confocal laser scanning microscopy. The format is functional, organism-based.
The test system of test [2] is Schistosoma mansoni. The test can be described thus: Antischistosomal activity against Schistosoma mansoni Schistosomula assessed as worm death at 10 uM incubated for 24 hrs relative to control. It is filed as functional.
Test [3] has as its system Schistosoma mansoni. The test can be described thus: Antischistosomal activity against adult Schistosoma mansoni assessed as worm death at 10 uM incubated for 120 hrs relative to control. The format is functional.
Test [4] deals with T1, Thioredoxin glutathione reductase (Schistosoma mansoni, UniProt Q962Y6).
T1 sequence (Q962Y6 whole entry): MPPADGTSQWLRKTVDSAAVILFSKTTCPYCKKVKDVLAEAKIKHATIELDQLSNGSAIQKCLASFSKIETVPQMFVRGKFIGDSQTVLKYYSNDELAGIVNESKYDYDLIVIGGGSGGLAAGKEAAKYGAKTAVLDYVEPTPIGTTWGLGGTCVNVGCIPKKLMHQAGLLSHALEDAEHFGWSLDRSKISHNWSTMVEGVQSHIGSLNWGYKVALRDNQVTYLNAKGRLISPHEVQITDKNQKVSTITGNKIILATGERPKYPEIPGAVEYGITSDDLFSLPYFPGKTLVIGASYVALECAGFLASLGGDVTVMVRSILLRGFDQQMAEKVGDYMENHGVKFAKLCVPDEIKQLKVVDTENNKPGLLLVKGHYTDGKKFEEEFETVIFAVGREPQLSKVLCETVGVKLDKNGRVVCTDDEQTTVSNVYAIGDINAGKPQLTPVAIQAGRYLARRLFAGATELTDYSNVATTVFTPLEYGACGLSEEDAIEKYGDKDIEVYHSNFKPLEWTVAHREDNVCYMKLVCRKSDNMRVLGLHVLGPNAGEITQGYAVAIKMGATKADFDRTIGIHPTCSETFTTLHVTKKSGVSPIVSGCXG
Nature of the test: Inhibition of Schistosoma mansoni thioredoxin glutathione reductase incubated for 30 mins by DTNB assay.

Test [5] concerns Schistosoma haematobium. The test can be described thus: Antischistosomal activity against Schistosoma haematobium assessed as worm death at 10 uM incubated for 120 hrs relative to control. The format is functional.
Test [6] relates to Schistosoma japonicum. The test can be described thus: Antischistosomal activity against Schistosoma japonicum assessed as worm death at 10 uM incubated for 120 hrs relative to control. The format is functional. The note with it: Schistosoma japonicum.
Test [7] deals with Schistosoma mansoni. The test can be described thus: Antischistosomal activity against juvenile Schistosoma mansoni assessed as worm death at 10 uM incubated for 24 hrs relative to control. It is filed as functional.
Test [8] concerns Schistosoma mansoni. Nature of the test: Antischistosomal activity against Schistosoma mansoni Liberian assessed as reduction in egg production incubated for 72 hrs measured every 24 hrs. The format is functional, organism-based.
The subject of test [9] is Schistosoma mansoni. Nature of the test: Antischistosomal activity against Schistosoma mansoni Liberian assessed as reduction in worm motor activity incubated for 72 hrs measured every 24 hrs by microscopic method relative to control. It is filed as functional, organism-based.
Test [10] relates to Schistosoma mansoni. The test can be described thus: Antischistosomal activity against Schistosoma mansoni Liberian assessed as worm death at 20 uM incubated for 72 hrs measured every 24 hrs by microscopic method relative to control. It is filed as functional.
Test [11] can be described thus: Inhibition of C-terminal His6-tagged Schistosoma mansoni NACE expressed in Pichia pastoris using 1-N6-ethenonicotinamide adenine dinucleotide as substrate by fluorometric assay.
The nature of test [12]: Inhibition of NACE in Schistosoma mansoni using 1-N6-ethenonicotinamide adenine dinucleotide as substrate incubated for 30 mins by fluorometric assay.
For test [13], the system named is Schistosoma mansoni. Nature of the test: Antischistosomal activity against Schistosoma mansoni BH assessed as worm death at 50 uM measured after 72 to 120 hrs by inverted optical microscopic method relative to control. The format is functional. The note with it: time 72-120 hrs.
The test system of test [14] is Schistosoma mansoni. Nature of the test: Antischistosomal activity against juvenile Schistosoma mansoni infected in ICR mouse assessed as reduction in worm burden at 8 mg/kg, ip administered for 5 consecutive days. It is filed as functional. The arrangement: scale not given: the % may be the effect or the level left.
Test [15] has as its system Schistosoma japonicum. The test can be described thus: Antischistosomal activity against juvenile Schistosoma japonicum infected in ICR mouse assessed as reduction in worm burden at 8 mg/kg, ip administered for 5 consecutive days. The format is functional. More on the design: scale not given: the % may be the effect or the level left.
Test [16] relates to Schistosoma japonicum. The test can be described thus: Antischistosomal activity against adult Schistosoma japonicum infected in ICR mouse assessed as reduction in worm burden at 8 mg/kg, ip administered for 5 consecutive days. More on the design: scale not given: the % may be the effect or the level left. The format is functional.
Test [17] deals with Schistosoma japonicum. The test can be described thus: Antischistosomal activity against larva Schistosoma japonicum infected in ICR mouse assessed as reduction in worm burden at 8 mg/kg, ip administered for 5 consecutive days. It is filed as functional. More on the design: scale not given: the % may be the effect or the level left.
Test [18] has as its system Schistosoma mansoni. Nature of the test: Antischistosomal activity against larva Schistosoma mansoni infected in ICR mouse assessed as reduction in worm burden at 8 mg/kg, ip administered for 5 consecutive days. The format is functional. More on the design: scale not given: the % may be the effect or the level left.
Test [19] relates to Schistosoma mansoni. The test can be described thus: Antischistosomal activity against adult Schistosoma mansoni infected in ICR mouse assessed as reduction in worm burden at 8 mg/kg, ip administered for 5 consecutive days. It is filed as functional. The arrangement: scale not given: the % may be the effect or the level left.
Test [20] has as its system Schistosoma haematobium. The test can be described thus: Antischistosomal activity against Schistosoma haematobium assessed as worm death at 10 uM incubated for 144 hrs relative to control. The format is functional.
Test [21] has as its system Schistosoma mansoni. The test can be described thus: Antischistosomal activity against juvenile Schistosoma mansoni assessed as worm death at 10 uM incubated for 120 hrs relative to control. The format is functional.
Test [22] concerns Schistosoma mansoni. Nature of the test: Antischistosomal activity against Schistosoma mansoni infected in MF1 swiss albino mouse assessed as worm burden reduction at 200 mg/kg, po measured after 2 weeks by stereomicroscopy relative to control. The format is functional. More on the design: scale not given: the % may be the effect or the level left.
In test [23] the test system is Schistosoma mansoni. Nature of the test: Antischistosomal activity against Schistosoma mansoni Egyptian assessed as worm death at 50 to 200 ug/ml incubated upto 72 hrs by stereomicroscopy. It is filed as functional. The note with it: dose 50-200 µg/ml; time hrs <=72; at 50 to 200 µg/mL.
In test [24] the test system is Schistosoma mansoni. Nature of the test: Antischistosomal activity against Schistosoma mansoni Egyptian assessed as reduction in egg production at 50 to 200 ug/ml incubated upto 72 hrs by microscopic method relative to control. The note with it: dose 50-200 µg/ml; time hrs <=72; at 50 to 200 µg/mL. The format is functional. The arrangement: scale not given: the % may be the effect or the level left.

The test system of test [25] is Schistosoma mansoni. The test can be described thus: Antischistosomal activity against Schistosoma mansoni Egyptian assessed as tegument damage at 50 to 200 ug/ml incubated upto 72 hrs by inverted microscopy. The format is functional. The note with it: dose 50-200 µg/ml; time hrs <=72; at 50 to 200 µg/mL.
The test system of test [26] is Schistosoma mansoni. Nature of the test: Antischistosomal activity against Schistosoma mansoni Egyptian assessed as reduction in motor activity at 50 to 200 ug/ml incubated upto 72 hrs by stereomicroscopy. More on the design: scale not given: the % may be the effect or the level left. The format is functional. The note with it: dose 50-200 µg/ml; time hrs <=72; at 50 to 200 µg/mL.

The IC50 is the midpoint of a concentration-inhibition curve. For `COc1cc(/C=N/NC(=O)c2ccc(C(C)(C)C)cc2)ccc1O`, in the test with Schistosoma mansoni [1], inhibition was half-maximal at 47.9 µM (IC50).
As usually defined, the mortality is the percentage killed. Take `CCN(c1ccccc1)S(=O)(=O)c1ccc(NC(=O)c2nc(S(C)(=O)=O)ncc2Cl)cc1`: the mortality at 10 µM came out at 100% in the test with Schistosoma mansoni [2]; 78% in the test with Schistosoma mansoni [3]; 94% with Schistosoma haematobium [5]; 50% with Schistosoma japonicum [6]; 100% in the test on Schistosoma mansoni [7]. The IC50 in test [4] stood at 0.21 µM.
As a reminder, the EC50 is the concentration at which the effect is half-maximal. As for `C[C@@H](N)CCCCCC/C=C\CCCCCCCCN`, the concentration for a half-maximal effect (EC50) with Schistosoma mansoni [8] worked out at 3.6 µM; in the test on Schistosoma mansoni [9] it was 8.8 µM. For the same molecule, the mortality at 20 µM in the test with Schistosoma mansoni [10] amounted to 100%.
Regarding `O=C(Nc1nc(=O)c2ccccc2s1)c1ccco1`, the IC50 in test [11] was 2.2 µM; in [12], 20 µM.
As to `O=C1CS/C(=N\N=C/c2cccc3c2OCO3)N1c1ccc(Br)cc1`, the Activity with Schistosoma mansoni [13] is 83.3%.
Take `C[C@@H]1O[C@@H](O[C@@H]2C[C@@H](O[C@@H]3O[C@H](CO)[C@@H](O)[C@H](O)[C@H]3O)CO[C@H]2O[C@H]2CC[C@]3(C)[C@H]4CC=C5[C@@H]6CC(C)(C)CC[C@]6(C(=O)O)CC[C@@]5(C)[C@]4(C)CC[C@H]3C2(C)C)[C@H](O)[C@H](O)[C@H]1O`: the Activity is 68.3% with Schistosoma mansoni [14]; 59.9% in the test on Schistosoma japonicum [15]; 53.2% with Schistosoma japonicum [16]; 90% in the test with Schistosoma japonicum [17]; 88.6% in the test on Schistosoma mansoni [18]; 70.6% with Schistosoma mansoni [19].
Take `COC(=O)CS(=O)(=O)c1nnc(C(Cc2ccccc2)NC(=O)OC(C)(C)C)o1` (stereo not given): the mortality at 10 µM in the test with Schistosoma mansoni [2] was 99%; in the test on Schistosoma mansoni [3], 62%; with Schistosoma haematobium [20] it was 67%; in the test on Schistosoma japonicum [6] it was 65%; in the test with Schistosoma mansoni [21], 39%. In test [4], this molecule gave an IC50 of 0.33 µM.
With `O=S(=O)(c1ccc(O)c2ncccc12)C1C(c2ccccc2)=Nc2ccncc2N=C1c1ccccc1` (stereo not given), the Activity turned out to be 81.2% in the test with Schistosoma mansoni [22], 54% with Schistosoma mansoni [24], 20% with Schistosoma mansoni [25] and 100% with Schistosoma mansoni [26]. For the same molecule, the mortality in the test on Schistosoma mansoni [23] is 100%.
